# Assay results: patent publication US20190112272A1, “SYNTHETIC RETINOIDS FOR USE IN RAR MEDIATED CONDITIONS” (High Force Research Limited, priority 2016, published 2019)
# How the values were obtained:
# SH-SY5Y cells [1] = experiment: Cell number / cell survival of SH-SY5Y cells; format: cell-based; settings: 10 nM, compared to same concentration of retinoic acid
# ERK 1/2 phosphorylation = experiment: Induction of ERK 1/2 phosphorylation (non-genomic response); format: cell-based; settings: for kinase activity (ERK 1/2 phosphorylation, non-genomic response): result in words
# Protocol: (§1) (b) The influence of a low concentration of retinoids on number of neurites from SH-SS5Y cells was determined.
# (§2) The action of retinoic acid in the brain, the relative importance of genomic versus non-genomic activity of retinoic acid was investigated by determining whether some RAR ligands preferentially activated one pathway. Retinoic acid (FIG. 1) was used as a compound known to induce both genomic and non-genomic pathways of retinoic acid signalling. We measured its relative activity as an inducer of gene transcription using a construct in which the promoter element to which the retinoic acid receptor binds (retinoic acid response element, RARE) drives a LacZ reporter (genomic response). This was compared to a cell based assay to measure induction of ERK 1/2 phosphorylation (non-genomic response).
# [2] = biological target: T1, Cellular Retinoic Acid Binding Protein II (CRABPII) (Homo sapiens, UniProt P29373); experiment: Fluorometric competitive binding titration of DC271 in CRABPII
# T1 sequence (P29373 1-138): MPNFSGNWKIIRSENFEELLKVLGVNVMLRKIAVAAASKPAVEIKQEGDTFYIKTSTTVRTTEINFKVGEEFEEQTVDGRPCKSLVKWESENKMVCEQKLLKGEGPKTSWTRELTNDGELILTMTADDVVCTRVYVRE
# Source text: A number of highly fluorescent analogues of retinoic acid (ATRA) have been synthesised at Durham University for use in a variety of imaging and biophysical studies. The fluorescence emission of these fluorescent retinoids, including DC271, is highly solvatochromatic and the intensity of this emission is strongly dependent on environment. Therefore, in a nonpolar solvent, the emission is blue shifted (425-500 nm) and intense, while in a polar solvent the emission is red shifted (500-600 nm) and weak (severely quenched in water). […] When EC23® is titrated against CRABPII-DC271 complex the reduction in fluorescence emission intensity can be used to produce a competition binding curve allowing the estimation of the Ki (inhibition constant) of the competition of EC23® for DC271 bound to CRABPII. […] For the competition with EC23® a solution of [DC271] =49.8 nM and [CRABPII]=75 nM was prepared in PBS buffer (20 mM K2HPO4, 100mM KCl, pH 7.4 buffer) and the fluorescence intensity was measured at 450 nm with excitation at 380 nm. […] The emission intensity of DC271 was plotted against Log[EC23], and a one site competitive binding model was fit to the resultant data (FIG. 5). This provided an estimation of the Log Ki of the competitive binding reaction (Table 1).
# [3] = tested on: retinoic acid response element (RARE) driven LacZ reporter in Sil-15 reporter cells (F9-RARE-lacZ cells); experiment: RARE-driven LacZ reporter gene assay (genomic response, Sil-15 reporter cells, X-Gal assay); format: cell-based; settings: for activation of transcription via a RARE (genomic response): Sil-15 reporter cells, result in words
# Source text: as §2
# Sil-15 reporter cells (also called F9-RARE-lacZ cells) were used in the X-Gal Assay. This cell line was derived from a stable transfection of F9 teratocarcinoma cells with a plasmid containing the LacZ gene under the control of a promoter linked to a retinoic acid response element (RARE). These cells were used to visually detect and semi-quantify the transcriptional activity of retinoic acid and other retinoids by monitoring β-galactosidase activity produced by the reporter cells in response to the retinoic acid/retinoids in the surrounding medium.
# Sil-15 cells were plated in a 0.1% gelatin-coated 96-well plate and grown to about 85-90% confluence in Dulbecco's modified Eagle's medium (DMEM) containing 10% foetal calf serum and 0.8 mg/ml G418 sulfate for selection.
# Serial dilutions of retinoids were prepared from the stock solutions under a red/orange light. A standard curve of RA was included in the experiment as a positive control. The RA/chemicals dilutions were added above the seeded Sil-15 cells in the 96-well plate and then the plate was wrapped with aluminium foil and incubated overnight in a humid atmosphere containing 5% CO2 at 37° C. All the concentrations for the RA and the two chemicals were tested in triplicates.
# The next day, Sil-15 cells were washed twice with 1× PBS, fixed with 100 μl per well of 1% glutaraldehyde fixation solution for 15 minutes, washed again two times with 1× PBS and finally β-galactosidase activity was visualized by adding 100 μl of a freshly prepared X-Gal developing solution (5-bromo-4-chloro-3-indolyl-β-d-galactopyranoside) to each well. The plate was incubated overnight at 37° C. in 5% CO2. The plate was read on an Emax microplate reader at 650 nm.
# Photostability = format: physicochemical
# SH-SY5Y cells [4] = experiment: Neurite outgrowth screening assay in SH-SY5Y cells; format: cell-based; settings: for effect on number of neurites compared to control: 10 nM retinoid, SH-SY5Y cells
# Protocol: as §1
# [5] = Induction of own catabolism in vivo; settings: unlike retinoic acid
smiles,measurement,setting,value
"CC1(C)CCC(C)(C)c2cc(C#Cc3ccc(C(=O)O)cc3)ccc21 [EC23®, 4-(5,5,8,8-tetramethyl-5,6,7,8-tetrahydro-naphthalen-2-ylethynyl) benzoic acid]",number of SH-SY5Y cells,SH-SY5Y cells [1],greatly enhances the number of SH-SY5Y cells
same,capacity to induce ERK phosphorylation (western blotting of phosphorylated ERK),"ERK 1/2 phosphorylation; 10 μM, after 20 minutes, versus same concentration of retinoic acid",much greater in its capacity to induce ERK phosphorylation than the same concentration of retinoic acid
same,Ki,"[2]; competition with DC271 49.8 nM, CRABPII 75 nM, PBS pH 7.4, one site model",3.16 nM
same,fold greater activity than retinoic acid (ATRA) in transactivation of a RAR driven reporter gene,[3]; relative to retinoic acid (ATRA),up to 500 fold
same,photostability,Photostability,photostable
same,effect on number of neurites compared to control,SH-SY5Y cells [4],strong and significant effect
same,induction of its own catabolism in vivo,[5],does not induce its own catabolism in vivo
"CC1=C(/C=C/C(C)=C/C=C/C(C)=C/C(=O)O)C(C)(C)CCC1 [ATRA, all-trans-retinoic acid]",EC50,"ERK 1/2 phosphorylation; 95% confidence interval 32.8 nM to 138.8 nM, read-out: mean EC50, ERK 1/2 kinase phosphorylation",67.5 nM
same,EC50,"[3]; RARE-LacZ reporter, 95% confidence interval 90.7 pM to 391.4 pM, read-out: mean EC50, genomic activation",0.188 nM
same,activation of transcription via a RARE (genomic response),[3],induces gene transcription of a RAR driven reporter gene
same,effect on number of neurites compared to control,SH-SY5Y cells [4],no significant effect
same,neurite outgrowth,"SH-SY5Y cells [4]; SH-SY5Y cell line, preliminary results, result in words",promotes neurite outgrowth
COCCOCOc1cc2ccc(-c3ccc(C(=O)O)cc3)cc2cc1C12CC3CC(CC(C3)C1)C2 [CD2665],"kinase activity (ERK 1/2 phosphorylation, non-genomic response)",ERK 1/2 phosphorylation,has significant kinase activity
same,activation of transcription via a RARE (genomic response),[3],shows no sign of activity to regulate gene expression via a RARE
C/C(=C\c1ccc(C(=O)O)cc1)c1ccc2c(c1)C(C)(C)CCC2(C)C [TTNPB],"kinase activity (ERK 1/2 phosphorylation, non-genomic response)",ERK 1/2 phosphorylation,does not activate kinase activity
same,activation of transcription via a RARE (genomic response),[3],can potently activate transcription via a RARE
CC(C)N1CCC(C)(C)c2cc(C#Cc3ccc(C(=O)O)cc3)ccc21 [DC271],Kd,"[2]; direct binding of the fluorescent retinoid, read-out: dissociation constant against CRABPII, Kd",49.1 ± 2.6 nM
